# Target: T1, HiBit-labeled full length SHIP1 protein (Homo sapiens, UniProt Q92835)
# T1 construct: thermal stability of a HiBit-labeled full length SHIP1 protein in intact cells; expressed in transfected cells; host or cells: HMC3 (stably transfected)
# T1 sequence (Q92835 1-1189): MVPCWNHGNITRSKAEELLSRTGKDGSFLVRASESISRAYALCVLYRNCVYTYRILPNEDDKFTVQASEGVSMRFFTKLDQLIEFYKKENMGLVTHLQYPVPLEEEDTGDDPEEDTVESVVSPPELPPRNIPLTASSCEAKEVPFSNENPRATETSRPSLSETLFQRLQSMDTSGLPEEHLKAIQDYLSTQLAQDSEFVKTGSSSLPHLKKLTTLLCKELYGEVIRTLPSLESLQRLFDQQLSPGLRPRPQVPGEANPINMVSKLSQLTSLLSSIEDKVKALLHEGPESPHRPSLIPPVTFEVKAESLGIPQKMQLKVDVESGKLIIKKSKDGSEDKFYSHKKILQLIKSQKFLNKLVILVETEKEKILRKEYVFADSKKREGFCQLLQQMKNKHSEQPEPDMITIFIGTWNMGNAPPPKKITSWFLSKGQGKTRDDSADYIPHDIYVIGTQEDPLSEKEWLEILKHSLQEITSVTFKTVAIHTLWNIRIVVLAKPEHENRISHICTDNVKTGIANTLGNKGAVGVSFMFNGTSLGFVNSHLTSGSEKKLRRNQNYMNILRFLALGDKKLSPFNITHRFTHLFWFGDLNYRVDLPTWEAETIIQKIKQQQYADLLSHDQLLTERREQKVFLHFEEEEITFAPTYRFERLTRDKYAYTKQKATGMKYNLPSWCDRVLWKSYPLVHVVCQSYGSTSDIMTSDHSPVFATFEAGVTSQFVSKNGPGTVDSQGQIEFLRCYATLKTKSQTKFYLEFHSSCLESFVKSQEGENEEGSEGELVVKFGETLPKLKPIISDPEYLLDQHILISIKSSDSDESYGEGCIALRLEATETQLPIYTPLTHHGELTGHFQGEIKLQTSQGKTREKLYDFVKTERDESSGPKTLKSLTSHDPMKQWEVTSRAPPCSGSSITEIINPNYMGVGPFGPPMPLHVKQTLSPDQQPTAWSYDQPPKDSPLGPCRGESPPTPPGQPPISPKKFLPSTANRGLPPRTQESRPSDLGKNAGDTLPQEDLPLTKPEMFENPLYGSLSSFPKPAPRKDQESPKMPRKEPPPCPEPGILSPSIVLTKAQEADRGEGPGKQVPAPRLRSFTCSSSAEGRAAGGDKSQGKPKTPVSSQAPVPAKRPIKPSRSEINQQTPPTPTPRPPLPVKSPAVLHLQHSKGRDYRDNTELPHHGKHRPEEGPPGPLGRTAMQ
# Assay: Cellular thermal shift assay (SplitLuc CETSA), thermal shift format
# Type: cell-based
# Set-up: key: Y = ΔTm difference of 40 μM compound treated cells from control is Tm > 3SD; N: otherwise negative
# Conditions: 40 μM compound for 60 min, HMC3/HiBit-INPP5D cells, 38-52° C. gradient; target engagement positive/negative
# Description: Cellular thermal shift assay (CETSA). […] This assay was run in the following two formats with HMC3/HiBit-INPP5D stably transfected cells.
# 1. Thermal shift: cells were treated with 40 μM compound for 60 min, then heated with a temperature gradient covering 38-52° C. for 3 min before luminescence detection. Mean and standard deviation of control Tm were determined to generate a “Mean+3SD” ΔTm, which was used as threshold to determine a significant ΔTm of compound from control. When the difference of ΔTm of compound treated cells from control Tm>3SD, the compound was considered positive for target engagement, otherwise negative. SD=average standard deviation.
# See Martinez et al. (2018) Sci Rep 8: p. 9472; Oh-Hashi et al. (2017) Biochem Biophys Rep 12: pp. 40-45. This assay was run in the following two formats with HMC3/HiBit-INPP5D stably transfected cells.
# Thermal shift: cells were treated with 40 μM compound for 60 min, then heated with a temperature gradient covering 38-52° C. for 3 min before luminescence detection. Mean and standard deviation of control Tm were determined to generate a “Mean+3SD” ΔTm, which was used as threshold to determine a significant ΔTm of compound from control. When the difference of ΔTm of compound treated cells from control Tm>3SD, the compound was considered positive for target engagement, otherwise negative. SD=average standard deviation.
row,Compound,CETSA SP
1,"CC(C)(C)OC(=O)N1CCC(n2cc(-c3cncc(OCc4ccccc4Cl)c3)cn2)CC1 [Compound 1, tert-butyl 4-(4-{5-[(2-chlorophenyl)methoxy]pyridin-3-yl}-1H-pyrazol-1-yl)piperidine-1-carboxylate]",N
2,"CC(C)(C)OC(=O)N1CCC(n2cc(-c3cncc(OCc4ccccc4F)c3)cn2)CC1 [Compound 2, tert-butyl 4-(4-(5-((2-fluorobenzyl)oxy)pyridin-3-yl)-1H-pyrazol-1-yl)piperidine-1-carboxylate]",N
3,"Cc1ccccc1COc1cncc(-c2cnn(C3CCN(C(=O)OC(C)(C)C)CC3)c2)c1 [Compound 3, tert-butyl 4-(4-(5-((2-methylbenzyl)oxy)pyridin-3-yl)-1H-pyrazol-1-yl)piperidine-1-carboxylate]",N
4,"CC(C)(C)OC(=O)N1CCC(n2cc(-c3cncc(OCc4ccccc4)c3)cn2)CC1 [Compound 4, tert-butyl 4-(4-(5-(benzyloxy)pyridin-3-yl)-1H-pyrazol-1-yl)piperidine-1-carboxylate]",N
5,"CC(C)(C)OC(=O)N1CCC(n2cc(-c3cncc(OCc4c(Cl)cccc4Cl)c3)cn2)CC1 [Compound 5, tert-butyl 4-(4-(5-((2,6-dichlorobenzyl)oxy)pyridin-3-yl)-1H-pyrazol-1-yl)piperidine-1-carboxylate]",N
6,"CC(C)(C)OC(=O)N1CCC(n2cc(-c3cncc(OCc4ccc(Br)cc4)c3)cn2)CC1 [Compound 7, tert-butyl 4-(4-(5-((4-bromobenzyl)oxy)pyridin-3-yl)-1H-pyrazol-1-yl)piperidine-1-carboxylate]",Y*
7,"Cl.Clc1ccccc1COc1cncc(-c2cnn(C3CCNCC3)c2)c1 [Compound 9, 3-((2-chlorobenzyl)oxy)-5-(1-(piperidin-4-yl)-1H-pyrazol-4-yl)pyridine hydrochloride]",Y
8,"Cl.Clc1ccc(COc2cncc(-c3cnn(C4CCNCC4)c3)c2)c(Cl)c1 [Compound 10, 3-((2,4-dichlorobenzyl)oxy)-5-(1-(piperidin-4-yl)-1H-pyrazol-4-yl)pyridine hydrochloride]",Y

# Second part, the compound after the results:
row,CETSA SP,Compound
1,N,"CC(C)(C)CCN1CCC(n2cc(-c3cncc(OCc4ccccc4Cl)c3)cn2)CC1 [Compound 15, 3-((2-chlorobenzyl)oxy)-5-(1-(1-(3,3-dimethylbutyl)piperidin-4-yl)-1H-pyrazol-4-yl)pyridine]"
2,N,"CC(C)(C)CC(=O)N1CCC(n2cc(-c3cncc(OCc4ccccc4Cl)c3)cn2)CC1 [Compound 16, 1-(4-(4-(5-((2-chlorobenzyl)oxy)pyridin-3-yl)-1H-pyrazol-1-yl)piperidin-1-yl)-3,3-dimethylbutan-1-one]"
3,Y,"C[C@H](Oc1cncc(-c2cnn(C3CCNCC3)c2)c1)c1ccccc1Cl [Compound 21, (S)-3-(1-(2-chlorophenyl)ethoxy)-5-(1-(piperidin-4-yl)-1H-pyrazol-4-yl)pyridine]"
4,Y,"C[C@@H](Oc1cncc(-c2cnn(C3CCNCC3)c2)c1)c1ccccc1Cl [Compound 22, (R)-3-(1-(2-chlorophenyl)ethoxy)-5-(1-(piperidin-4-yl)-1H-pyrazol-4-yl)pyridine]"
5,Y,"C[C@@H](Oc1cncc(-c2cnn(C3CCNCC3)c2)c1)c1ccc(Cl)cc1 [Compound 23, (R)-3-(1-(4-chlorophenyl)ethoxy)-5-(1-(piperidin-4-yl)-1H-pyrazol-4-yl)pyridine]"
6,Y,"Cc1ccccc1COc1cncc(-c2cnn(C3CCNCC3)c2)c1 [Compound 25, 3-[(2-Methylphenyl)methoxy]-5-[1-(piperidin-4-yl)-1H-pyrazol-4-yl]pyridine]"
7,Y,"Clc1ccccc1COc1cncc(-c2ccn(C3CCNCC3)n2)c1 [Compound 26, 3-((2-chlorobenzyl)oxy)-5-(1-(piperidin-4-yl)-1H-pyrazol-3-yl)pyridine]"
8,Y,"Clc1ccccc1COc1cncc(-n2ccc(C3CCNCC3)n2)c1 [Compound 27, 3-((2-chlorobenzyl)oxy)-5-(3-(piperidin-4-yl)-1H-pyrazol-1-yl)pyridine]"
9,Y,"Clc1ccccc1COc1cncc(-n2cc(C3CCNCC3)cn2)c1 [Compound 28, 3-((2-chlorobenzyl)oxy)-5-(4-(piperidin-4-yl)-1H-pyrazol-1-yl)pyridine]"
10,N,"Clc1ccccc1COc1cccc(-c2cnn(C3CCNCC3)c2)c1 [Compound 29, 4-(4-(3-((2-chlorobenzyl)oxy)phenyl)-1H-pyrazol-1-yl)piperidine]"
